Test results: patent publication US10165791B2, “Use of rubusoside for reducing or suppressing certain unpleasant taste impressions” (Symrise AG, priority 2010, dated 2019)

How the values were obtained:
[1] = Reduction of astringent and sour impression, panel of trained tasters; assay type: in vivo, human; settings: Yogurt 0.1% fat; 10 mg/kg rubusoside
Description: The following products, in each case without and with a flavoring composition, were assessed by a panel of trained tasters. The astringent impression and sour impression were assessed on a scale from 1 (not perceptible) to 9 (very strong) and averaged for the tasters.

[2] = own tests: taste of rubusoside in water; assay type: in vivo, human
Description: It is known that extracts from Rubus suavissimus or certain compounds isolated therefrom are able to make sweet-tasting orally consumable preparations taste even sweeter, as described in WO 2008/049256. Moreover, it is known that isolated rubusoside from Rubus suavissimus tastes perceptibly sweet starting from a concentration of approx. 25 mg/kg (equivalent to 25 ppm) (taste recognition threshold). Rubusoside can be used as a sweetener (Hirono, S.; Chou, W. H.; Kasai, R.; Tanaka, O.; Tada, T., Sweet and bitter diterpene glucosides from leaves of Rubus suavissimus. Chemical & Pharmaceutical Bulletin 1990, 38, (6), 1743-1744).

[3] = isolated rubusoside from Rubus suavissimus; equivalent to 25 ppm; cited from earlier work
[4] = in the presence of acids; cited from earlier work

| Molecule | Astringent impression (0-9) b) with test substance [1] | Sour impression (0-9) b) with test substance [1] | sweet taste equivalent to the sweetness of an aqueous sucrose solution ([2]; 100 mg/kg (100 ppm) in water) [%] | concentration above which a recognizably bitter taste is additionally displayed ([2]; in water) [mg/kg] | taste recognition threshold (tastes perceptibly sweet starting from) [3] | duration of the conversion of sour impression to sweet taste [4] [h] |
| --- | --- | --- | --- | --- | --- | --- |
| C=C1C[C@@]23CC[C@H]4[C@@](C)(CCC[C@@]4(C)C(=O)O[C@@H]4O[C@H](CO)[C@@H](O)[C@H](O)[C@H]4O)[C@@H]2CC[C@]1(O[C@@H]1O[C@H](CO)[C@@H](O)[C@H](O)[C@H]1O)C3 [rubusoside, Rubusoside] | 5 | 5.5 | 1.4 | > 100 | approx. 25 mg/kg |  |
| miraculin: protein that in the presence of acids transforms the sour impression into a sweet taste impression (protein, UniProt P13087 30-220, looked up) Miraculin: DSAPNPVLDIDGEKLRTGTNYYIVPVLRDHGGGLTVSATTPNGTFVCPPRVVQTRKEVDHDRPLAFFPENPKEDVVRVSTDLNINFSAFMPCRWTSSTVWRLDKYDESTGQYFVTIGGVKGNPGPETISSWFKIEEFCGSGFYKLVFCPTVCGSCKVKCGDVGIYIDQKGRRRLALSDKPFAFEFNKTVYF |  |  |  |  |  | 2 to 4 |
